According to PubChem BioAssay AID2060511 (Molecular Pharmacology Branch, DTP, NCI, 2025):
Values joined by “and” are separate entries in the source; they are usually repeats but may differ in a detail not shown here. Equal values may be shown once.

System: 422866-222-R5-J1-PDC spheroids with HUVEC/MSC, viability
Assay: Anticancer human tumor 422866-222-R5-J1-PDC patient-derived pancreatic adenocarcinoma cell line growth inhibition [GQUAD]
Conditions: for viability, T/C: stronger effect = lower value
Excerpt: DNA G-quadruplex Stabilizer Agents in Combinations in Complex Spheroids
A high-throughput screen of multi-cell type tumor spheroids was designed to identify active combinations of DNA G-quadruplex stabilizer agents and targeted small molecules. Complex spheroids include a stromal component modeled by human endothelial cells (HUVEC) and fibroblasts modeled by human mesenchymal stem cells (MSCs). The concentration ranges selected for each drug and investigational agent were based upon clinically achievable concentrations if the clinical Cmax of the agent was known.
Compounds. The drugs and investigational agents: pidnarulex (CX-5461; NSC782164), APTO-253 (NSC789042), BRACO-19 (NSC847499), peposertib (NSC802822), ceralasertib (NSC780249), elimusertib (NSC800525), camonsertib (NSC841442), AZD-1390 (NSC803789), olaparib (NSC753686), talazoparib (NSC767125), ART-558 (NSC835418), sotorasib (NSC818433), MRTX-1133 (NSC836407), SN-38 (NSC673596), topotecan (NSC609699), etoposide (NSC141540), doxorubicin (NSC123127), gemcitabine (NSC613327), 5-fluorouracil (NSC19893), paclitaxel (NSC125973), vemurafenib (NSC761431), panobinostat (NSC761190), R-306465 (JNJ-16241199; NSC773264), adavosertib (NSC754352), TP-3654 (NSC805149), carboplatin (NSC241240), KSQ-4279 (NSC840948), and staurosporine (NSC755774) were obtained from the National Cancer Institute (NCI) Developmental Therapeutics Program Chemical Repository (34). The FDA-approved anticancer drug set is available from the NCI Developmental Therapeutics Program. […] The stock solutions were prepared in dimethyl sulfoxide (DMSO, Sigma-Aldrich, St. Louis, MO, cat. D2650) at 800-fold the tested concentration and stored at -70 degrees C prior to their use. All drugs and investigational agents were tested over a range starting from a high concentration at or near the clinical Cmax and decreasing in half-log increments. If the clinical Cmax for an agent had not been determined, the highest concentration tested was 10 microM.
2.3 Cell Culture. All cells were maintained in an incubator at 37 degrees C and 5% CO2 with 95% humidity. The PDC lines were cultured according to standard operating procedures established by the NCI PDMR. All PDCs were thawed and cultured in Matrigel-coated flasks prepared with a working solution of 1X Ham's F-12 nutrient mix, without supplementation (Invitrogen, cat. 11765054), 100 U/mL penicillin-streptomycin (Invitrogen, cat. 15140122), and 2.5% Matrigel (Corning Inc., cat. 354248) for the first three passages. The 857933-349-R-J2-PDC line was cultured in 6C/Colon 1B media, which includes advanced DMEM/F-12 (Thermo Fisher Scientific, cat. 12634028), 10 mM HEPES (Thermo Fisher Scientific, cat. 15630080), 1X GlutaMAX supplement (Thermo Fisher Scientific, cat. 35050061), 0.1 mg/mL primocin (InvivoGen, cat. ant-pm-2), 10% defined fetal bovine serum, heat inactivated (HyClone Laboratories Inc., cat. SH30070.03HI), 50% L-WRN conditioned media (ATCC, cat. CRL-3276), 1.25 mM N-Acetyl-L-cysteine (Sigma-Aldrich, cat. A9165), 10 mM nicotinamide (Sigma-Aldrich, cat. N0636), 1X B-27 supplement (Thermo Fisher Scientific, cat. 17504044), 1X N-2 supplement (Thermo Fisher Scientific, cat. 17502048), 10 microM Y-27632 dihydrochloride (Tocris Bioscience, cat. 1254), and 50 ng/mL human EGF recombinant protein (Thermo Fisher Scientific, cat. PHG0311). The 485176-168-R4-J1-PDC line was cultured in Panc media, which includes all 6C/Colon 1B media components plus 100 ng/mL human FGF-10 (Thermo Fisher Scientific, cat. 100-26), 500 nM SB-431542 (Selleckchem, cat. S1067), and gastrin (Tocris, cat. 3006).
[…]

[1] = curve of first compound, second compound 0.0316 µM
[2] = curve of first compound, second compound 0.1 µM
[3] = curve of first compound, second compound 0.316 µM
[4] = curve of first compound, second compound 1 µM
[5] = curve of first compound, second compound 3.16 µM
[6] = curve of first compound, second compound 10 µM
[7] = second compound 0.0316 µM, first compound 0.0316 µM
[8] = second compound 0.0316 µM, first compound 0.1 µM
[9] = second compound 0.0316 µM, first compound 0.316 µM
[10] = second compound 0.0316 µM, first compound 1 µM
[11] = second compound 0.0316 µM, first compound 3.16 µM
[12] = second compound 0.0316 µM, first compound 10 µM
[13] = second compound 0.1 µM, first compound 0.0316 µM
[14] = second compound 0.1 µM, first compound 0.1 µM
[15] = second compound 0.1 µM, first compound 0.316 µM
[16] = second compound 0.1 µM, first compound 1 µM
[17] = second compound 0.1 µM, first compound 3.16 µM
[18] = second compound 0.1 µM, first compound 10 µM
[19] = second compound 0.316 µM, first compound 0.0316 µM
[20] = second compound 0.316 µM, first compound 0.1 µM
[21] = second compound 0.316 µM, first compound 0.316 µM
[22] = second compound 0.316 µM, first compound 1 µM
[23] = second compound 0.316 µM, first compound 3.16 µM
[24] = second compound 0.316 µM, first compound 10 µM
[25] = second compound 1 µM, first compound 0.0316 µM
[26] = second compound 1 µM, first compound 0.1 µM
[27] = second compound 1 µM, first compound 0.316 µM
[28] = second compound 1 µM, first compound 1 µM
[29] = second compound 1 µM, first compound 3.16 µM
[30] = second compound 1 µM, first compound 10 µM
[31] = second compound 3.16 µM, first compound 0.0316 µM
[32] = second compound 3.16 µM, first compound 0.1 µM
[33] = second compound 3.16 µM, first compound 0.316 µM
[34] = second compound 3.16 µM, first compound 1 µM
[35] = second compound 3.16 µM, first compound 3.16 µM
[36] = second compound 3.16 µM, first compound 10 µM
[37] = second compound 10 µM, first compound 0.0316 µM
[38] = second compound 10 µM, first compound 0.1 µM
[39] = second compound 10 µM, first compound 0.316 µM
[40] = second compound 10 µM, first compound 1 µM
[41] = second compound 10 µM, first compound 3.16 µM
[42] = second compound 10 µM, first compound 10 µM
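Note: spheroids exposed to compounds for seven days before reading.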
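Throughout, for viability, T/C: percent viability relative to DMSO vehicle control taken as 100%.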

COc1ccc([C@@H](O)c2cc(-c3ncnc4cc(N5CCOCC5)ccc34)c(F)cc2Cl)nn1
viability, T/C (compound 0.0316 µM): 82.4% and 103% and 110%
viability, T/C (compound 0.1 µM): 76.2% and 78.4% and 99%
viability, T/C (compound 0.316 µM): 81.6% and 86% and 90.4%
viability, T/C (compound 1 µM): 63.3% and 76.9% and 70.8%
viability, T/C (compound 3.16 µM): 51.5% and 44.1% and 60.7%
viability, T/C (compound 10 µM): 36.9% and 35.1% and 47.2%
IC50 (curve of compound): 3.15 µM and 2.62 µM and 7.88 µM

COc1cc(C2c3cc4c(cc3C(OC3OC5COC(C)OC5C(O)C3O)C3COC(=O)C23)OCO4)cc(OC)c1O (centres undefined) + CN(C)c1ccc(Nc2c3ccc(NC(=O)CCN4CCCC4)cc3nc3cc(NC(=O)CCN4CCCC4)ccc23)cc1
IC50 [1]: 1.89 µM
IC50 [2]: 1.52 µM
IC50 [3]: 3.33 µM
IC50 [4]: 0.926 µM
IC50 [5]: 3.09 µM
IC50 [6]: 4.39 µM
viability, T/C [7]: 97.3%
viability, T/C [8]: 89%
viability, T/C [9]: 84.5%
viability, T/C [10]: 57.5%
viability, T/C [11]: 41.4%
viability, T/C [12]: 45.4%
viability, T/C [13]: 116%
viability, T/C [14]: 86.6%
viability, T/C [15]: 70.9%
viability, T/C [16]: 54.1%
viability, T/C [17]: 40.9%
viability, T/C [18]: 38.2%
viability, T/C [19]: 101%
viability, T/C [20]: 92.9%
viability, T/C [21]: 73.8%
viability, T/C [22]: 59.2%
viability, T/C [23]: 50.7%
viability, T/C [24]: 46.3%
viability, T/C [25]: 92%
viability, T/C [26]: 79.4%
viability, T/C [27]: 63.9%
viability, T/C [28]: 47.1%
viability, T/C [29]: 44.4%
viability, T/C [30]: 38.1%
viability, T/C [31]: 85.7%
viability, T/C [32]: 76.2%
viability, T/C [33]: 65.9%
viability, T/C [34]: 56.2%
viability, T/C [35]: 49.9%
viability, T/C [36]: 46%
viability, T/C [37]: 73.2%
viability, T/C [38]: 80.8%
viability, T/C [39]: 67.1%
viability, T/C [40]: 63.9%
viability, T/C [41]: 55.9%
viability, T/C [42]: 38.2%

Cc1cnc(CNC(=O)c2c(=O)c3ccc(N4CCCN(C)CC4)nc3n3c2sc2ccccc23)cn1
viability, T/C (compound 0.1 µM): 96.7% [middle of 12 runs]
viability, T/C (compound 0.316 µM): 90.4% [middle of 12 runs]
viability, T/C (compound 1 µM): 85.3% [middle of 12 runs]
viability, T/C (compound 3.16 µM): 87.8% [middle of 12 runs]
viability, T/C (compound 10 µM): 81% [middle of 11 runs]
IC50 (compound alone, run of 04/16/2024): > 10 µM

Cc1cccc(N(C)C(=O)C2C(O)CCN2c2nc(C)cc(C(F)(F)F)c2C#N)c1 (centres undefined)
viability, T/C (compound 0.0316 µM): 96.3% and 97.3% and 82.4%
viability, T/C (compound 0.1 µM): 103% and 95.9% and 89.9%
viability, T/C (compound 0.316 µM): 103% and 102% and 96.2%
viability, T/C (compound 1 µM): 101% and 96.9% and 109%
viability, T/C (compound 3.16 µM): 99.9% and 77.2% and 105%
viability, T/C (compound 10 µM): 108% and 97.5% and 98%
IC50 (curve of compound): > 10 µM

O=C(NO)c1cnc(N2CCN(S(=O)(=O)c3ccc4ccccc4c3)CC2)nc1 + Cc1[nH]c2ccc(F)cc2c1-c1nc2c3cccnc3c3ncccc3c2[nH]1
IC50 [1]: > 10 µM
IC50 [2]: > 10 µM
IC50 [3]: > 10 µM
IC50 [4]: > 10 µM
IC50 [5]: > 10 µM
IC50 [6]: > 10 µM
viability, T/C [7]: 78.6%
viability, T/C [8]: 69.2%
viability, T/C [9]: 64.7%
viability, T/C [10]: 68.1%
viability, T/C [11]: 71.6%
viability, T/C [12]: 75.4%
viability, T/C [13]: 81.1%
viability, T/C [14]: 68.3%
viability, T/C [15]: 56.4%
viability, T/C [16]: 61%
viability, T/C [17]: 74.2%
viability, T/C [18]: 72.3%
viability, T/C [19]: 77.5%
viability, T/C [20]: 68%
viability, T/C [21]: 71.4%
viability, T/C [22]: 61.7%
viability, T/C [23]: 63.2%
viability, T/C [24]: 78.1%
viability, T/C [25]: 64.4%
viability, T/C [26]: 61.6%
viability, T/C [27]: 62.6%
viability, T/C [28]: 61.2%
viability, T/C [29]: 75%
viability, T/C [30]: 70%
viability, T/C [31]: 56%
viability, T/C [32]: 56.6%
viability, T/C [33]: 51.6%
viability, T/C [34]: 63.3%
viability, T/C [35]: 67.8%
viability, T/C [36]: 66%
viability, T/C [37]: 60.1%
viability, T/C [38]: 47.8%
viability, T/C [39]: 59.5%
viability, T/C [40]: 57%
viability, T/C [41]: 51%
viability, T/C [42]: 64.4%
